Experimental data from ChEMBL document CHEMBL3044532, “Integrated control of cotton root rot disease by mixing fungal biocontrol agents and resistance inducers” (2009).

Tests used:
Format in all cases: functional
[1] = system: Gossypium barbadense; assay: Induction of systemic acquired resistance against Fusarium oxysporum AUSB 26325 in Gossypium barbadense seeds assessed as increase of fresh weight of seedling under greenhouse condition at 0.05 ml/L after 7 days
[2] = system: Gossypium barbadense; assay: Induction of systemic acquired resistance against Fusarium oxysporum AUSB 26325 in Gossypium barbadense seeds assessed as reduction of disease index for germination under greenhouse condition at 0.05 ml/L after 7 days relative to infected control; parameters: scale not given: the % may be the effect or the level left
[3] = system: Gossypium barbadense; assay: Induction of systemic acquired resistance against Pythium debaryanum AUSB 26351 in Gossypium barbadense seeds assessed as increase of fresh weight of seedling under greenhouse condition at 0.05 ml/L after 7 days
[4] = system: Gossypium barbadense; assay: Induction of systemic acquired resistance against Pythium debaryanum AUSB 26351 in Gossypium barbadense seeds assessed as reduction of disease index for germination under greenhouse condition at 0.05 ml/L after 7 days relative to infected control; parameters: scale not given: the % may be the effect or the level left
[5] = system: Gossypium barbadense; assay: Induction of systemic acquired resistance against Fusarium oxysporum AUSB 26325 in Gossypium barbadense seeds assessed as increase of germination under greenhouse condition at 0.05 ml/L after 7 days relative to control
[6] = system: Gossypium barbadense; assay: Induction of systemic acquired resistance against Pythium debaryanum AUSB 26351 in Gossypium barbadense seeds assessed as increase of germination under greenhouse condition at 0.05 ml/L after 7 days relative to control
[7] = system: Gossypium barbadense; assay: Induction of systemic acquired resistance against Fusarium oxysporum AUSB 26325 in Gossypium barbadense seeds assessed as increase of dry weight of seedling under greenhouse condition at 0.05 ml/L after 7 days
[8] = system: Gossypium barbadense; assay: Induction of systemic acquired resistance against Pythium debaryanum AUSB 26351 in Gossypium barbadense seeds assessed as increase of dry weight of seedling under greenhouse condition at 0.05 ml/L after 7 days

In the case of `CSC(=O)c1cccc2nnsc12` [ACIBENZOLAR-S-METHYL], the Activity [1] is reported as 8.3 g, the Activity [2] is reported as 45.3% and the Activity [3] is reported as 2 g. For the same compound, the Activity [4] was 60%, the Activity [5] was 40.7% and the Activity [6] was 40%. It also gave an Activity [7] of 0.9 g and an Activity [8] of 0.2 g.
